Measurements taken from patent US20240293413A1, “COMPOUND AND METHOD FOR TREATING CHEMOTHERAPY-RELATED GASTROINTESTINAL SIDE EFFECTS” (ONQUALITY PHARMACEUTICALS CHINA LTD., priority 2021, published 2024).

Columns and labels:
Format in all cases: in vivo
[1] = test system: Chemotherapeutic agent-caused diarrhea models of Balb/c mice; assay: Examples 1-229 (Table 3): oral CDK inhibitor, relief of diarrhea caused by a chemotherapeutic agent;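 note: percent of treated mice whose diarrhea grade fell below chemotherapy-group average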
[2] = test system: diarrhea caused by a chemotherapeutic agent in Balb/c mice; assay: Examples 343-381 (Table 6): oral versus intravenous CDK inhibitor, relief of diarrhea caused by a chemotherapeutic agent;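 note: percent of treated mice whose diarrhea grade fell below chemotherapy-group average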
Text: Balb/c mice were fed for 1 week, and then divided into groups. The experiment was divided into a control group, a chemotherapeutic agent group, and an oral administration group of a CDK inhibitor, and an intravenous injection group of a CDK inhibitor, each of which comprised 10 mice, to perform the administration experiment, for which the administration dosage, mode, time and frequency were shown in Table 6. The control group: being injected/intragastrically administered with the same solvent as that used in the CDK inhibitor group (the time was shown in Table 6), and then being injected/intragastrically administered with the same solvent as that used in the chemotherapeutic agent group (the administration mode was shown in Table 6): the chemotherapeutic agent group: being injected/intragastrically administered with the same solvent as that used in the CDK inhibitor group (the time was shown in Table 6), and then being injected/intragastrically administered with the chemotherapeutic agent (the type, administration mode and dosage were shown in Table 6): the oral administration group of the CDK inhibitor: being intragastrically administered with the CDK inhibitor (the time was shown in Table 6), and then being administered with the chemotherapeutic agent (the mode and dosage were shown in Table 6): the intravenous injection group of the CDK inhibitor: being injected with the CDK inhibitor through tail vein (the time was shown in Table 6), and then being administered with the chemotherapeutic agent (the mode and dosage were shown in Table 6).
The diarrhea grading of mice was observed and recorded every day.

[3] = test system: diarrhea caused by the continuous administration of a chemotherapeutic agent in Balb/c mice; assay: Examples 444-469 (Table 9): oral CDK inhibitor, diarrhea caused by continuous administration of a chemotherapeutic agent; conditions: Example 457; Fluorouracil (5-Fu) oral administration 50 mg/kg once a day, for 14 days; CDK inhibitor oral 150 mg/kg once a day, for 14 days, 8 h before; cycle 14 days
Text: Balb/c mice were fed for 1 week, and then divided into groups. The experiment was divided into a control group, a chemotherapeutic agent group, and a CDK inhibitor group, each of which comprised 10 mice, to perform the administration experiment, for which the administration dosage, mode, time and frequency were shown in Table 9. The control group: being intragastrically administered with the same solvent as that used in the CDK inhibitor group (the time was shown in Table 9), and then being injected/intragastrically administered with the same solvent as that used in the chemotherapeutic agent group (the administration mode was shown in Table 9): the chemotherapeutic agent group: being intragastrically administered with the same solvent as that used in the CDK inhibitor group (the time was shown in Table 9), and then being injected/intragastrically administered with the chemotherapeutic agent (the type, administration mode, dosage and duration time were shown in Table 9): the CDK inhibitor group: being intragastrically administered with the CDK inhibitor (the time was shown in Table 9), and then being administered with the chemotherapeutic agent (the type, administration mode, dosage and duration time were shown in Table 9).
The scoring of diarrhea can refer to the method of Akinobu Kurita (Cancer Chemother Pharmacol 2000: 46:211-20.), Grade 0: normal feces: Grade 1: mild diarrhea, the stools is slightly wet and soft: Grade 2: moderate diarrhea, loose stools and mild perianal contamination: Grade 3: severe diarrhea, watery stools and accompanied by severe perianal staining (see FIG. 1). It is regarded as effective remission when the diarrhea grading of mice in the CDK inhibitor group is reduced compared with the average diarrhea grading of mice in the chemotherapeutic agent group.
The diarrhea grading of mice was observed and recorded every day. At the end of the experiment, the number of mice in the CDK inhibitor group whose diarrhea grading was lower than that of mice in the chemotherapeutic agent group was recorded. Table 9 lists various animal experiment combinations of chemotherapeutic agents and CDK inhibitors, as well as the corresponding experimental results. (Relative remission rate %=the number of mice in the CDK inhibitor group whose diarrhea has been effectively relieved/the total number of mice in the CDK inhibitor group*100%. The establishment rate of diarrhea model in the chemotherapeutic agent group was 50%-80%, that is, about 5-8 of 10 mice developed diarrhea during the experiment, and there were cases of individual mice death or not developing diarrhea.)

Compound: CCN1CCN(Cc2ccc(Nc3ncc(F)c(-c4cc(F)c5nc(C)n(C(C)C)c5c4)n3)nc2)CC1 [Abemaciclib]
- Relative remission rate (%) ([1]; Example 48, Fluorouracil (5-Fu) intramuscular injection 125 mg/kg single, CDK inhibitor oral 150 mg/kg single 8 h before, cycle 10 days): 40%
- Relative remission rate (%) ([1]; Example 89, Irinotecan (CPT-11) intraperitoneal injection 240 mg/kg single, CDK inhibitor oral 150 mg/kg single 0.5 h before, cycle 7 days): 30%
- Relative remission rate (%) ([1]; Example 90, Irinotecan (CPT-11) intraperitoneal injection 240 mg/kg single, CDK inhibitor oral 150 mg/kg single 1 h before, cycle 7 days): 30%
- Relative remission rate (%) ([1]; Example 91, Irinotecan (CPT-11) intraperitoneal injection 240 mg/kg single, CDK inhibitor oral 150 mg/kg single 2 h before, cycle 7 days): 40%
- Relative remission rate (%) ([1]; Example 92, Irinotecan (CPT-11) intraperitoneal injection 240 mg/kg single, CDK inhibitor oral 150 mg/kg single 3 h before, cycle 7 days): 30%
- Relative remission rate (%) ([1]; Example 93, Irinotecan (CPT-11) intraperitoneal injection 240 mg/kg single, CDK inhibitor oral 150 mg/kg single 4 h before, cycle 7 days): 50%
- Relative remission rate (%) ([1]; Example 94, Irinotecan (CPT-11) intraperitoneal injection 240 mg/kg single, CDK inhibitor oral 150 mg/kg single 5 h before, cycle 7 days): 60%
- Relative remission rate (%) ([1]; Example 95, Irinotecan (CPT-11) intraperitoneal injection 240 mg/kg single, CDK inhibitor oral 150 mg/kg single 6 h before, cycle 7 days): 60%
- Relative remission rate (%) ([1]; Example 96, Irinotecan (CPT-11) intraperitoneal injection 240 mg/kg single, CDK inhibitor oral 150 mg/kg single 7 h before, cycle 7 days): 60%
- Relative remission rate (%) ([1]; Example 97, Irinotecan (CPT-11) intraperitoneal injection 240 mg/kg single, CDK inhibitor oral 150 mg/kg single 8 h before, cycle 7 days): 70%
- Relative remission rate (%) ([1]; Example 98, Irinotecan (CPT-11) intraperitoneal injection 240 mg/kg single, CDK inhibitor oral 150 mg/kg single 9 h before, cycle 7 days): 50%
- Relative remission rate (%) ([1]; Example 99, Irinotecan (CPT-11) intraperitoneal injection 240 mg/kg single, CDK inhibitor oral 12.5 mg/kg single 10 h before, cycle 7 days): 20%
- Relative remission rate (%) ([1]; Example 100, Irinotecan (CPT-11) intraperitoneal injection 240 mg/kg single, CDK inhibitor oral 25 mg/kg single 10 h before, cycle 7 days): 40%
- Relative remission rate (%) ([1]; Example 101, Irinotecan (CPT-11) intraperitoneal injection 240 mg/kg single, CDK inhibitor oral 50 mg/kg single 10 h before, cycle 7 days): 80%
- Relative remission rate (%) ([1]; Example 102, Irinotecan (CPT-11) intraperitoneal injection 240 mg/kg single, CDK inhibitor oral 100 mg/kg single 10 h before, cycle 7 days): 50%
- Relative remission rate (%) ([1]; Example 103, Irinotecan (CPT-11) intraperitoneal injection 240 mg/kg single, CDK inhibitor oral 150 mg/kg single 10 h before, cycle 7 days): 70%
- Relative remission rate (%) ([1]; Example 104, Irinotecan (CPT-11) intraperitoneal injection 240 mg/kg single, CDK inhibitor oral 100 mg/kg single 11 h before, cycle 7 days): 80%
- Relative remission rate (%) ([1]; Example 105, Irinotecan (CPT-11) intraperitoneal injection 240 mg/kg single, CDK inhibitor oral 100 mg/kg single 12 h before, cycle 7 days): 80%
- Relative remission rate (%) ([1]; Example 106, Irinotecan (CPT-11) intraperitoneal injection 240 mg/kg single, CDK inhibitor oral 100 mg/kg single 14 h before, cycle 7 days): 90%
- Relative remission rate (%) ([1]; Example 107, Irinotecan (CPT-11) intraperitoneal injection 240 mg/kg single, CDK inhibitor oral 100 mg/kg single 16 h before, cycle 7 days): 70%
- Relative remission rate (%) ([1]; Example 108, Irinotecan (CPT-11) intraperitoneal injection 240 mg/kg single, CDK inhibitor oral 100 mg/kg single 18 h before, cycle 7 days): 70%
- Relative remission rate (%) ([1]; Example 109, Irinotecan (CPT-11) intraperitoneal injection 240 mg/kg single, CDK inhibitor oral 100 mg/kg single 20 h before, cycle 7 days): 40%
- Relative remission rate (%) ([1]; Example 110, Irinotecan (CPT-11) intraperitoneal injection 240 mg/kg single, CDK inhibitor oral 100 mg/kg single 22 h before, cycle 7 days): 40%
- Relative remission rate (%) ([1]; Example 111, Irinotecan (CPT-11) intraperitoneal injection 240 mg/kg single, CDK inhibitor oral 100 mg/kg single 24 h before, cycle 7 days): 40%
- Relative remission rate (%) ([1]; Example 112, Irinotecan (CPT-11) intraperitoneal injection 240 mg/kg single, CDK inhibitor oral 100 mg/kg single 48 h before, cycle 7 days): 0%
- Relative remission rate (%) ([1]; Example 226, Topotecan intraperitoneal injection 10 mg/kg single, CDK inhibitor oral 150 mg/kg single, 6 h before, 14 days): 40%
- Relative remission rate ([2]; Example 364, Carboplatin (CBP) intramuscular injection 150 mg/kg single, CDK inhibitor intravenous injection 150 mg/kg single, 8 h before, cycle 10 days): 20%
- Relative remission rate ([2]; Example 364, Carboplatin (CBP) intramuscular injection 150 mg/kg single, CDK inhibitor oral 150 mg/kg single, 8 h before, cycle 10 days): 50%
- Relative remission rate ([2]; Example 371, Gemcitabine (GEM) intraperitoneal injection 120 mg/kg single, CDK inhibitor intravenous injection 150 mg/kg single, 0.5 h before, cycle 8 days): 10%
- Relative remission rate ([2]; Example 371, Gemcitabine (GEM) intraperitoneal injection 120 mg/kg single, CDK inhibitor oral 150 mg/kg single, 0.5 h before, cycle 8 days): 30%
- Relative remission rate ([2]; Example 372, Gemcitabine (GEM) intraperitoneal injection 120 mg/kg single, CDK inhibitor intravenous injection 150 mg/kg single, 4 h before, cycle 8 days): 10%
- Relative remission rate ([2]; Example 372, Gemcitabine (GEM) intraperitoneal injection 120 mg/kg single, CDK inhibitor oral 150 mg/kg single, 4 h before, cycle 8 days): 30%
- Relative remission rate ([2]; Example 373, Gemcitabine (GEM) intraperitoneal injection 120 mg/kg single, CDK inhibitor intravenous injection 150 mg/kg single, 8 h before, cycle 8 days): 20%
- Relative remission rate ([2]; Example 373, Gemcitabine (GEM) intraperitoneal injection 120 mg/kg single, CDK inhibitor oral 150 mg/kg single, 8 h before, cycle 8 days): 50%
- Relative remission rate ([2]; Example 374, Gemcitabine (GEM) intraperitoneal injection 120 mg/kg single, CDK inhibitor intravenous injection 150 mg/kg single, 12 h before, cycle 8 days): 20%
- Relative remission rate ([2]; Example 374, Gemcitabine (GEM) intraperitoneal injection 120 mg/kg single, CDK inhibitor oral 150 mg/kg single, 12 h before, cycle 8 days): 50%
- Relative remission rate ([2]; Example 375, Gemcitabine (GEM) intraperitoneal injection 120 mg/kg single, CDK inhibitor intravenous injection 150 mg/kg single, 24 h before, cycle 8 days): 10%
- Relative remission rate ([2]; Example 375, Gemcitabine (GEM) intraperitoneal injection 120 mg/kg single, CDK inhibitor oral 150 mg/kg single, 24 h before, cycle 8 days): 40%
- Relative remission rate [3]: 0%
